Measurements from US4798823A, “New cyclosporin analogs with modified "C-9 amino acids"” (Merck & Co., Inc., priority 1987, dated 1989).

Biological target: cyclophilin (Bos taurus, UniProt P62935)
Assay: Cyclophilin binding assay
Conditions: relative to cyclosporin A (CsA); average of multiple assays
Source text: ^a This assay is described in detail by R. Handschumacher et. al.,

Chain of cyclophilin (P62935 whole entry): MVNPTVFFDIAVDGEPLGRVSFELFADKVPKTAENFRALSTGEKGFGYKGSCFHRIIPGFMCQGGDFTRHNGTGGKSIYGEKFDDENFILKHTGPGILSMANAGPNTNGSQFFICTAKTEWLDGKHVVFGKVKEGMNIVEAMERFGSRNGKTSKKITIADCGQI

cyclo[[](((2S,3R,[4R]4S)-N,4-dimethyl-4-(methylthiomethyl)-threonyl)-L-2-aminobutyrylsarcosyl-N-methyl-L-leucyl-L-valyl-N-methyl-L-leucyl-L-alanyl-D- alanyl-N-methyl-L-leucyl-N-methyl-L-leucyl-N-methyl-L-valyl-[]]) [(a)]
CYCLOPHILIN BINDING (% OF CsA Activity): 179 % OF CsA Activity
